Laboratory results as given in US6258547A, “Nucleic acid encoding amp-activated protein kinase” (Zeneca Limited, priority 1993, dated 2001).

Tests used:
[1] = system: AMP-activated protein kinase (AMPK) partially purified from rat liver (DEAE-Sepharose fraction); type: biochemical; details: 200 µM
[2] = biological target: T1, Saccharomyces cerevisiae SNF1 protein kinase, wild type (Saccharomyces cerevisiae, UniProt P06782+P12904); experiment: SAMS peptide phosphorylation assay in yeast extracts; type: biochemical; details: over a range of AMP concentrations; data not shown
T1 construct: We were able to detect kinase activity using this assay in wild type yeast extracts; endogenous in cells; host or cells: wild type Saccharomyces cerevisiae extract
T1 sequence (P06782 1-633): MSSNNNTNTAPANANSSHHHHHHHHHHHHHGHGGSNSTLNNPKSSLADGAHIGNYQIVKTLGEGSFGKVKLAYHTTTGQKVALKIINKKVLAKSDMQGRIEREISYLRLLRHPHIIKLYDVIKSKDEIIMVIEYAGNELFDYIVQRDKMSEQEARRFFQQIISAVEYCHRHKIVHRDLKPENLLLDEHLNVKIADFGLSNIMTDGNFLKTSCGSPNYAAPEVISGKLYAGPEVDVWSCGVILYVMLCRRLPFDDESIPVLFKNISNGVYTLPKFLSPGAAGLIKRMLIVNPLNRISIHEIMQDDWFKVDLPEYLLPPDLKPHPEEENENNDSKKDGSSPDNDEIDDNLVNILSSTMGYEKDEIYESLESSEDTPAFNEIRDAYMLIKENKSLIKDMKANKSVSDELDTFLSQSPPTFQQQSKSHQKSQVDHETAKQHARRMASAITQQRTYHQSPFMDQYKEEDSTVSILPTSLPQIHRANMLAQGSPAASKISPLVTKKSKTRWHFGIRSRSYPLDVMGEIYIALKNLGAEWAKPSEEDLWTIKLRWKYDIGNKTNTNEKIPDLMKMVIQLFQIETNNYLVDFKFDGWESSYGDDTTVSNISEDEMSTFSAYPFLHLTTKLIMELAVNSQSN
T1 sequence (P12904 1-322): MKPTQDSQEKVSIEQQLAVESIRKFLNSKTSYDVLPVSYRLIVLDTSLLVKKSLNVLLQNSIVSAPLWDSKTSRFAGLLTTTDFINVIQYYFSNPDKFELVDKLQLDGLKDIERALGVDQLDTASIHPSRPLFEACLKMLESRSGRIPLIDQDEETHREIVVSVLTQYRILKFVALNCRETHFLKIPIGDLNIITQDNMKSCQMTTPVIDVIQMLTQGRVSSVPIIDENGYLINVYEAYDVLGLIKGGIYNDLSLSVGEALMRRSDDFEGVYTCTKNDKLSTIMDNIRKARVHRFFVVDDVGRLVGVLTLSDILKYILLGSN
Text: In Saccharomyces cerevisiae SNF1 protein kinase activity is essential for release of genes from glucose repression. […] The amino acid sequences of SNF1 and AMPK are 46% identical. We investigated whether SNF1 and AMPK shared any functional similarity in addition to their primary sequence homology. […] We believe that this polypeptide is likely to be involved in the regulation of mammalian AMPK in the same way that SNF4 regulates SNF1 function in yeast. […] The apparent Km of SAMS peptide for SNF1 (20 μM) was similar to that of the AMPK (data not shown).

[3] = system: AMP-activated protein kinase (AMPK) purified from rat liver; details: cited from earlier work

Nc1ncnc2c1ncn2[C@@H]1O[C@H](COP(=O)(O)O)[C@@H](O)[C@H]1O [AMP]
stimulation of AMPK activity by AMP [1]: approximately 3 fold
activation of SNF1 by AMP [2]: unable to detect any significant activation
activation of AMPK by AMP [3]: approximately 5 fold
